Measurements as given in ChEMBL document CHEMBL5465560, “Selectivity Literature for EUbOPEN Chemogenomic Library” (2024).

Key:
[1] = system: Mast/stem cell growth factor receptor Kit (Homo sapiens), P10721 [D816H]; assay: (§1) Selectivity interaction (KinomeScan (DiscoverX)) EUB0000666a KIT; conditions: at 10 µM
[2] = system: Mast/stem cell growth factor receptor Kit (Homo sapiens), P10721 [D816V]; assay: as §1; conditions: at 10 µM
[3] = system: Mast/stem cell growth factor receptor Kit (Homo sapiens), P10721 [L576P]; assay: as §1; conditions: at 10 µM
[4] = system: Mast/stem cell growth factor receptor Kit (Homo sapiens), P10721 [V559D,T670I]; assay: as §1; conditions: at 10 µM
[5] = system: Mast/stem cell growth factor receptor Kit (Homo sapiens), P10721 [V559D,V654A]; assay: as §1; conditions: at 10 µM
[6] = system: Mast/stem cell growth factor receptor Kit (Homo sapiens), P10721 [V559D]; assay: as §1; conditions: at 10 µM
[7] = target: Mast/stem cell growth factor receptor Kit (Homo sapiens, UniProt P10721); assay: as §1; conditions: at 10 µM
[8] = target: Calcium/calmodulin-dependent protein kinase type II subunit beta (Homo sapiens) (UniProt Q13554); assay: Selectivity interaction (SelectScreen profiling (Invitrogen)) EUB0000607a CAMK2B; conditions: at 2 µM
[9] = target: MAP kinase-activated protein kinase 2 (Homo sapiens, UniProt P49137); assay: Selectivity interaction (KinomeScan (DiscoverX)) EUB0000607a MAPKAPK2; conditions: at 10 µM
[10] = target: T1, Serine/threonine-protein kinase 4 (Homo sapiens) (UniProt Q13043); assay: Selectivity interaction (Kinase panel (Invitrogen)) EUB0000639a STK4; conditions: at 200 nM
T1 sequence (whole entry): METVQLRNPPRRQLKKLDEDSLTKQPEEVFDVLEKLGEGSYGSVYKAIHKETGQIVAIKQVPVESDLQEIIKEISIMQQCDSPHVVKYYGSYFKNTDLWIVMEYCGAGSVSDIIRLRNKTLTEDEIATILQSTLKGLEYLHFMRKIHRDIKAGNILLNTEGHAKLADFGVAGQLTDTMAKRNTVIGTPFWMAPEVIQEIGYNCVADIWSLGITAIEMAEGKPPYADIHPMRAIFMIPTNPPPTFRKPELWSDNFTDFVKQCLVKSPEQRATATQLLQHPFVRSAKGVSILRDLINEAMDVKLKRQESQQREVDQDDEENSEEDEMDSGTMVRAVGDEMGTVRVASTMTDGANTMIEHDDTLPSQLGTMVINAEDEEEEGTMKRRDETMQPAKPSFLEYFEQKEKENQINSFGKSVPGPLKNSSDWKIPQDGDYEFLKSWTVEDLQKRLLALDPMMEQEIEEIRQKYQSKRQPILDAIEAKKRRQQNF

[11] = target: Cyclin-dependent kinase 16 (Homo sapiens) (UniProt Q00536); assay: Selectivity interaction (KinomeScan (DiscoverX)) EUB0001049a CDK16; conditions: at 1 µM
[12] = target: Insulin receptor-related protein (Homo sapiens) (UniProt P14616); assay: Selectivity interaction (KinomeScan (DiscoverX)) EUB0001049a INSRR; conditions: at 1 µM
[13] = target: T2, Mitogen-activated protein kinase kinase kinase 15 (Homo sapiens) (UniProt Q6ZN16); assay: Selectivity interaction (KinomeScan (DiscoverX)) EUB0001079a MAP3K15; conditions: at 1 µM
T2 sequence (whole entry): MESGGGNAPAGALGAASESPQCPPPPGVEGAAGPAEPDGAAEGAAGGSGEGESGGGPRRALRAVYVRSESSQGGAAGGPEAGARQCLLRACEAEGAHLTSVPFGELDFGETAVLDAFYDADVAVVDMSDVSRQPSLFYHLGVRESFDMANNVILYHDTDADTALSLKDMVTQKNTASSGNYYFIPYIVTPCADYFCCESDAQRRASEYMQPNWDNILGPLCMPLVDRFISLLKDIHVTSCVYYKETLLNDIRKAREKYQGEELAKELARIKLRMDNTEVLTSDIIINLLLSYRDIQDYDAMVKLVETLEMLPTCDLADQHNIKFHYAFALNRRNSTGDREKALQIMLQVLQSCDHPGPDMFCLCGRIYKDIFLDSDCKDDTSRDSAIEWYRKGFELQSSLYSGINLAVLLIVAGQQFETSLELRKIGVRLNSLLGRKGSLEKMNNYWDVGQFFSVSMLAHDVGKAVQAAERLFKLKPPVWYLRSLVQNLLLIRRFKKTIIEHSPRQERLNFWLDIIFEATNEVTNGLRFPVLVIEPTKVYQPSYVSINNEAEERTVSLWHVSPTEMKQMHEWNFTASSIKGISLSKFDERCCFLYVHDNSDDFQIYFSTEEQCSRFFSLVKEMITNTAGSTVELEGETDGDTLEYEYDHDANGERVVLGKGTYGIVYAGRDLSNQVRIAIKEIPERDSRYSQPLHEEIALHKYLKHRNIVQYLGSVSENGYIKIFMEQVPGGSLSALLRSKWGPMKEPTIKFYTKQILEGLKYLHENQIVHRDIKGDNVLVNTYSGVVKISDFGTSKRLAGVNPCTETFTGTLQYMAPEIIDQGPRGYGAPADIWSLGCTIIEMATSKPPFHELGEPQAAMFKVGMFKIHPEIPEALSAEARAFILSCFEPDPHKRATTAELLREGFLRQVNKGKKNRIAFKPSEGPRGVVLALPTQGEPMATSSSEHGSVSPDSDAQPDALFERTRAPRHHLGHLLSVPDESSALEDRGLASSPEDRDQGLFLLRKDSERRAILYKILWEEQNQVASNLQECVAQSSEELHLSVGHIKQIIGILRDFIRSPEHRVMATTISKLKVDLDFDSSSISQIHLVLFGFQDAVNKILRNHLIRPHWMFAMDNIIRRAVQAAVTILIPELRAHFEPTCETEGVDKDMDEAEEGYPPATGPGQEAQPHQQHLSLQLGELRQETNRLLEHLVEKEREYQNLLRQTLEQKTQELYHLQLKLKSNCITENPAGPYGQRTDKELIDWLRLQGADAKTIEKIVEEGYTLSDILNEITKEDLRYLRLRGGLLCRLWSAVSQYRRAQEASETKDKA

Mast/stem cell growth factor receptor Kit (Homo sapiens), P10721 [D816V], sequence (P10721 whole entry D816V): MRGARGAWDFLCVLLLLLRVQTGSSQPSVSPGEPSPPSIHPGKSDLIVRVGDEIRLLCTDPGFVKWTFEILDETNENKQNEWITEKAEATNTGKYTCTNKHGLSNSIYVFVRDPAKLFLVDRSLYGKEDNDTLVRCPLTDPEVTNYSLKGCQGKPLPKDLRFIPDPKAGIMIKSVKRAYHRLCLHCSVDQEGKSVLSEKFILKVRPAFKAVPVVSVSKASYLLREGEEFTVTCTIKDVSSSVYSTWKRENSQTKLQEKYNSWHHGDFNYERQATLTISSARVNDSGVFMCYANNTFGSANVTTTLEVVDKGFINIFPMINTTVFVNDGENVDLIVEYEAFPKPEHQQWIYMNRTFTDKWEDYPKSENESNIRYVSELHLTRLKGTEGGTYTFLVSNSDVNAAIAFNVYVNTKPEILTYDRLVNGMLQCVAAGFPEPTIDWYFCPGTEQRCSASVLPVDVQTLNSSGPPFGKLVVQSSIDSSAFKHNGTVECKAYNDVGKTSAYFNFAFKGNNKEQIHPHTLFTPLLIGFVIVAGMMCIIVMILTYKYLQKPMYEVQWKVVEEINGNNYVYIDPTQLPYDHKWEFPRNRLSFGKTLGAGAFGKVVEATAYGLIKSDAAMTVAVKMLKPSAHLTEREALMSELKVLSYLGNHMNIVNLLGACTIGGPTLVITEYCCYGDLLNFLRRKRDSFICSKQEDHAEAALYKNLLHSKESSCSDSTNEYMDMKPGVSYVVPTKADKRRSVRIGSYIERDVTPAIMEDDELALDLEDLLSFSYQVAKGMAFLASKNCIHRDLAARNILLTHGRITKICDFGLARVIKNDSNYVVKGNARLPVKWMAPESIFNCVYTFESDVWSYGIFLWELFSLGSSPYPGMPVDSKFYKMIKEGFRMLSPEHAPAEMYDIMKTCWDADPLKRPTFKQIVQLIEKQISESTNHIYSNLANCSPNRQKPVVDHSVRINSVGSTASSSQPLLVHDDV
Mast/stem cell growth factor receptor Kit (Homo sapiens), P10721 [L576P], sequence (P10721 whole entry L576P): as the sequence (P10721 whole entry D816V) above, with L576P, V816D counted along it
MAP kinase-activated protein kinase 2, sequence (P49137 whole entry, looked up): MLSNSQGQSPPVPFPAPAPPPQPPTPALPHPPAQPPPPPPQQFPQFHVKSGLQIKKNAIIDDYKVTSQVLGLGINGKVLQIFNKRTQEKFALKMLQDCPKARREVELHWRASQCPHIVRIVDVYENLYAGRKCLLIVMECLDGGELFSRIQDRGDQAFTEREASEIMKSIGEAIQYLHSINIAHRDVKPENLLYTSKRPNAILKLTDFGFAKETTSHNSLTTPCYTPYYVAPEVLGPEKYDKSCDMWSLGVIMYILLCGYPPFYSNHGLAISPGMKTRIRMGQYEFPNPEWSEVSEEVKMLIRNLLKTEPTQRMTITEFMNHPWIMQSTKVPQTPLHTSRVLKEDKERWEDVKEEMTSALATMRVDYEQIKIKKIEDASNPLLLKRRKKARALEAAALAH
Mast/stem cell growth factor receptor Kit (Homo sapiens), P10721 [D816H], sequence (P10721 whole entry D816H): as the sequence (P10721 whole entry D816V) above, with V816H counted along it
Mast/stem cell growth factor receptor Kit (Homo sapiens), P10721 [V559D], sequence (P10721 whole entry V559D): as the sequence (P10721 whole entry D816V) above, with V559D, V816D counted along it
Mast/stem cell growth factor receptor Kit (Homo sapiens), P10721 [V559D,V654A], sequence (P10721 whole entry V559D/V654A): as the sequence (P10721 whole entry D816V) above, with V559D, V654A, V816D counted along it
Calcium/calmodulin-dependent protein kinase type II subunit beta (Homo sapiens), sequence (Q13554 whole entry): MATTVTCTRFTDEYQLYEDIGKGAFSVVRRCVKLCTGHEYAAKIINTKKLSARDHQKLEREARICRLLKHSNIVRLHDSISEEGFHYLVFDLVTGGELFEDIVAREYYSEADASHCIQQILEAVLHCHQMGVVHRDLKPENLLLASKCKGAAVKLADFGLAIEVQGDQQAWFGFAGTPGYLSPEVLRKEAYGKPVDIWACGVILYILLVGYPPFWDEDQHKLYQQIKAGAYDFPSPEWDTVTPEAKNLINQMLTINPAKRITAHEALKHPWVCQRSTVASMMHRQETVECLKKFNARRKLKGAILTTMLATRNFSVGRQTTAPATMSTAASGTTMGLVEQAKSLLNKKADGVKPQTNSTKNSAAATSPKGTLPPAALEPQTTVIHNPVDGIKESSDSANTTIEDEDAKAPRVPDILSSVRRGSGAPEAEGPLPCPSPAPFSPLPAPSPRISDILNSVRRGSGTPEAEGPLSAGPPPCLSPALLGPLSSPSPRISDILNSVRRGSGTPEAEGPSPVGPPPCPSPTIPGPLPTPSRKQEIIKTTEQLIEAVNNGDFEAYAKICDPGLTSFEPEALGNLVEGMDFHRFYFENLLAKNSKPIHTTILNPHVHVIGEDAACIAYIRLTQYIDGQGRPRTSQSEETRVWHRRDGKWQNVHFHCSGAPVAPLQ
Cyclin-dependent kinase 16 (Homo sapiens), sequence (Q00536 whole entry): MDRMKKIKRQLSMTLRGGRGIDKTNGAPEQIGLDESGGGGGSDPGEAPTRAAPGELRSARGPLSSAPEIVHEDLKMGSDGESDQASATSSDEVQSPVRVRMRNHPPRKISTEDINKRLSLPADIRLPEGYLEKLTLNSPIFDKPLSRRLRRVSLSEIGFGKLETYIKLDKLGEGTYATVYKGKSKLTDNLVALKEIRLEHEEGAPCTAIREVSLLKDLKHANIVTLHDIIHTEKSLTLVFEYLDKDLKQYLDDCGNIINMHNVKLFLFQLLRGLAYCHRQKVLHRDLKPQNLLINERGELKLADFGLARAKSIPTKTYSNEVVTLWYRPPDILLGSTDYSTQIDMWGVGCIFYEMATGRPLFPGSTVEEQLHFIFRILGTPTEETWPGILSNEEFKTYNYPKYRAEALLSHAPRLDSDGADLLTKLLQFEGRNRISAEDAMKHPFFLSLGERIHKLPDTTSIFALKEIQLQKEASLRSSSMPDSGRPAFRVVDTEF
Mast/stem cell growth factor receptor Kit, sequence (P10721 whole entry): as the sequence (P10721 whole entry D816V) above, with V816D counted along it
Insulin receptor-related protein (Homo sapiens), sequence (P14616 27-742 limits assumed): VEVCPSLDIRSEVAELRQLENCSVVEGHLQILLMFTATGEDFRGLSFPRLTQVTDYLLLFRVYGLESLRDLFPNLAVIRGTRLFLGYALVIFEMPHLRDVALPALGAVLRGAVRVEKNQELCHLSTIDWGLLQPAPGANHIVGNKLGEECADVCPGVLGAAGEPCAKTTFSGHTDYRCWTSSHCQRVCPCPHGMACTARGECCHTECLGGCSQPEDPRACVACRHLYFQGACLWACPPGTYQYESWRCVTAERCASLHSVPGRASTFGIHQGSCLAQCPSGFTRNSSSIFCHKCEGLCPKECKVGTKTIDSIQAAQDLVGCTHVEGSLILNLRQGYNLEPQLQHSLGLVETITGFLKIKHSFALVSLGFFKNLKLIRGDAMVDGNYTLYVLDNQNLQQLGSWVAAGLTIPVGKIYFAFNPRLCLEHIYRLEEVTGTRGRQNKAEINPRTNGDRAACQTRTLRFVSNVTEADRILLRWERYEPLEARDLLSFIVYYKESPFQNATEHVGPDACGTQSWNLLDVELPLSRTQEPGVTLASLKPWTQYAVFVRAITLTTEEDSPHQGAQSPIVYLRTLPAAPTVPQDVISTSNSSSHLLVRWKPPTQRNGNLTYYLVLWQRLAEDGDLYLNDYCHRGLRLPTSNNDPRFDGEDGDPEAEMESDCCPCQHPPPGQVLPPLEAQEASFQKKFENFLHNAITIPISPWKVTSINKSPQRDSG
Insulin receptor-related protein (Homo sapiens), sequence (P14616 747-1297 limits assumed): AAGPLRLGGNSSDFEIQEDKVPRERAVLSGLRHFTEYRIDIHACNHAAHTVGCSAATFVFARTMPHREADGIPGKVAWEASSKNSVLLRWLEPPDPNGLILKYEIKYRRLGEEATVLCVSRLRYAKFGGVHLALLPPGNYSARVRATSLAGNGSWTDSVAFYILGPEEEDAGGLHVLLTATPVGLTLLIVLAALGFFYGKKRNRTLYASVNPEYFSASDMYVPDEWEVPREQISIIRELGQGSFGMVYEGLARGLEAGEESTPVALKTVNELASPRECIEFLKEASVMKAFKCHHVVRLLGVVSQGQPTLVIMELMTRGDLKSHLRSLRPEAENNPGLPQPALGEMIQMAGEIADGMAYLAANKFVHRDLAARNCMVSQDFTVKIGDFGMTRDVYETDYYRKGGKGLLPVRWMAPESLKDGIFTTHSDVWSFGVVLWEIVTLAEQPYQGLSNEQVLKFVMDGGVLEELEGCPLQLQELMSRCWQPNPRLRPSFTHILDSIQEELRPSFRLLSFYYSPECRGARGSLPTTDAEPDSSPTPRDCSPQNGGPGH
Mast/stem cell growth factor receptor Kit (Homo sapiens), P10721 [V559D,T670I], sequence (P10721 whole entry V559D/T670I): as the sequence (P10721 whole entry D816V) above, with V559D, T670I, V816D counted along it

O=C(NOC[C@H](O)CO)c1ccc(F)c(F)c1Nc1ccc(I)cc1F
% of control [1]: 91%
% of control [2]: 87%
% of control [3]: 75%
% of control [4]: 90%
% of control [5]: 100%
% of control [6]: 74%
% of control [7]: 92%

CNC(=O)Nc1ccc(-c2nc(N3CC4CCC(C3)O4)c3cnn(C4CCC5(CC4)OCCO5)c3n2)cc1
% of inhibition [8]: 8%
% of control [9]: 82%

CC[C@@H]1[C@H](F)C(=O)N[C@@H]1COc1nccc2cc(C(N)=O)c(OC)cc12 [ZIMLOVISERTIB]
% of inhibition [10]: 13.8%

COc1cc(Nc2nc(C)cc(-c3cnn4nc(OC)ccc34)n2)cc(C(F)(F)F)c1
% of control [11]: 74%
% of control [12]: 86%

Nc1cnc(N2CCc3cc(S(=O)(=O)Nc4c(F)cc(Cl)cc4F)cc(N4CCCC4=O)c32)nc1 [TP-020n]
% of control [13]: 100%
